Data taken from patent publication USRE49575E1, “Method for the preparation of (4S)-4-(4-cyano-2-methoxyphenyl)-5-ethoxy-2,8-dimethyl-l,4-dihydro-1-6-naphthyridine-3-carbox-amide and the purification thereof for use as an active pharmaceutical ingredient” (Bayer Pharma Aktiengesellschaft, priority 2014, dated 2023).

Columns and labels:
Type in all cases: physicochemical
[1] = Stability and moisture absorption: storage at 85% and 97% rel. humidity, evaluated by DSC, TGA and XRPD; conditions: for mass change: after 12 months
Description: Stability and Moisture Absorption Samples of compound of the formula (I) in crystalline form of polymorph I were stored at 85% and 97% rel. humidity (25° C.). The samples were evaluated after 12 months by DSC, TGA and XRPD. After 12 months, a mass change of <0.1% is observed in both cases. […] According to DSC, TGA and XRPD, no difference exists in compound of the formula (I) in crystalline form of polymorph I.

[2] = Storage stability of polymorph I
[3] = TGA, loss of mass on heating; conditions: up to a temperature of 175° C.
Description: No other phase transitions were observed. A loss of mass of ca. 0.1% was observed up to a temperature of 175° C.

[4] = 85% and 97% rel. humidity (25° C.), 12 months

absorption of water [1, 4]: no significant absorption of water
difference according to DSC, TGA and XRPD after storage [1, 4]: no difference
mass change ([1]; stored at 85% rel. humidity (25° C.)): < 0.1%
mass change ([1]; stored at 97% rel. humidity (25° C.)): < 0.1%
stability properties ([2]; even at high atmospheric humidity): very good stability properties
storage time without any problem ([2]; solid, crystalline polymorph I): > 2 years
loss of mass [3]: ca. 0.1%
Structure (SMILES): CCOc1ncc(C)c2c1[C@H](c1ccc(C#N)cc1OC)C(C(N)=O)=C(C)N2 [(4S)-4-(4-cyano-2-methoxyphenyl)-5-ethoxy-2,8-dimethyl-1,4-dihydro-1,6-naphthyridine-3-carboxamide]
